Data as given in patent publication US10675267B2, “Methods for detection and eradication of myeloid leukemia stem cells” (priority 2015, dated 2020).
“Also recorded” adds a separate entry of the source.

Assays:
[1] = test system: KG1a cells; assay: In vitro splicing of endogenous transcripts (qRT-PCR) in KG1a; assay type: cell-based; conditions: KG1a AML cells, compared with MOLM-13
Experimental: For qRT-PCR analysis of relative total mRNA expression levels or splice isoform-specific expression analyses, cDNA was synthesized using 50 ng-1 […] reaction volumes using the First-Strand SUPERSCRIPT™ III Reverse Transcriptase Supermix (Life Technologies) followed by incubation with RNase H according to the manufacturer's protocol and as described previously (Abrahamsson et al., 2009; Crews et al., 2015). All cDNA products were stored at −20° C. Splice isoform-specific primers for PTK2B-202 were designed to bind to unique exon junctions for this transcript, which lacks exon 24. All primers (Supplemental Experimental Procedures Table) were diluted to 10 ∝M working dilutions in DNase/RNase-free water. qRT-PCR was performed in duplicate using cDNA (1 ∝Λ reverse transcription product per reaction) on an iCycler (Bio-Rad, Hercules, Calif.) using SYBR® GREENER™ Super Mix (Life Technologies) in 25-∝A volume reactions containing 0.2 ∝M of each forward and reverse primer. Cycling conditions were as follows: 50° C. for 2 minutes, then 95° C. for 8 minutes and 30 seconds, followed by 40 cycles of 95° C. for 15 seconds and 60° C. for 60 seconds. […] For standard qRT-PCR, human HPRT mRNA transcript levels were used to normalize Ct values obtained for each gene, and relative expression levels were calculated using the 2-ddCt method. […]

[2] = test system: AML LSC (CD34+ cells from AML primary samples); assay: SL/M2 stromal co-culture with colony formation (survival) and replating (self-renewal) assays, AML; assay type: cell-based, human
Experimental: In hypothesis-driven experiments, the splicing modulatory compound 17S-FD-895 was tested to determine efficacy in altering splicing activity in cell lines, and to evaluate effects on AML LSC survival and self-renewal capacity in humanized bone marrow stromal co-cultures and in PRIMAGRAFT™ AML LSC models. Cell culture experiments were performed using 293T and sAML (MOLM-13) cell lines, and SL and M2 bone marrow stromal cell lines. Animal studies were performed using immunocompromised Rag2−/−γc−/−[20] or NOD/SCID-IL2RG mice (Jackson Laboratory, Bar Harbor, Me.). Primary AML and normal control samples were used in in vitro hematopoietic stem and progenitor assays after bone marrow stromal co-culture and treatment with splicing modulatory compounds (FD-895 or 17S-FD-895) or vehicle control (DMSO). Colony formation potential and self-renewal capacity were assessed by counting colony numbers (survival) after two weeks of growth in semi-solid (methylcellulose) media, and subsequent replating capacity (self-renewal) was assessed after transfer to fresh methylcellulose for an additional two weeks of culture. Three primary AML samples were utilized to establish PRIMAGRAFT™ models in immunocompromised mice, and mice engrafted with cells from two of these models (AML-37 and AML-08) were treated with 17S-FD-895 or vehicle (DMSO) to evaluate changes in AML LSC survival and self-renewal capacity in vivo. Data were collected by flow cytometry and qRT-PCR analysis of CD34-selected human LSC-enriched cells from engrafted mice.
Bone marrow SL/M2 monolayers were established from freshly inactivated (irradiated) cells and then human CD34^+ cells selected from AML primary samples (n=8) and normal controls (CD34^+ cells from cord blood, CB, n=6; or aged bone marrow, n=6) were added. Survival and self-renewal of the CD34+ cells were investigated by methylcellulose-based colony and replating assays. Two SF3B1-targeted splicing modulators, FD-895 or 17S-FD-895, were added at the initiation of co-culture at concentrations ranging from 0.1 to 10 μM.
Mouse bone marrow stromal cell lines (SL and M2 mycoplasma-free authenticated cells obtained from ATCC) expressing human interleukin-3 (IL-3), stem cell factor (SCF) and granulocyte-colony stimulating factor (G-CSF), which support erythroid and myeloid cell expansion and differentiation, were maintained under standard culture conditions, as previously described. Briefly, SL cells were grown in complete medium containing DMEM (Corning), 10% FBS, 1% Glutamax, and 1% penicillin-streptomycin (Life Technologies), while M2 cells were grown in complete medium containing RPMI, 10% FBS, 1% Glutamax, and 1% penicillin-streptomycin (all from Life Technologies). Every four passages, cells were selected by addition of G418 and hygromycin to the culture media for one passage (3-4 days), to maintain human cytokine expression. All cell lines were maintained in T-25 or T-75 culture flasks and were passaged at dilutions of 1:5-1:10 every 2-4 days. Low passage aliquots of cells were thawed every two months to ensure consistency of experiments.
As previously described (Goff et al., 2013), humanized bone marrow SL/M2 monolayers were inactivated (irradiated) and then human CD34^+ cells selected from AML primary samples and normal controls were added for two weeks of co-culture, followed by methylcellulose-based colony and replating assays. FD-895 or 17S-FD-895 were added at the initiation of co-culture, with DMSO as a vehicle control.
Mouse bone marrow stromal cell lines (SL and M2 mycoplasma-free authenticated cells obtained from ATCC) expressing human interleukin-3 (IL-3), stem cell factor (SCF) and granulocyte-colony stimulating factor (G-CSF), which support erythroid and myeloid cell expansion and differentiation (Hogge et al., 1996), were maintained under standard culture conditions, as previously described (Goff et al., 2013). […]

[3] = two weeks SL/M2 co-culture, 0.1-10 μM, versus DMSO

CC[C@H](OC)[C@@H](C)[C@H]1O[C@@H]1[C@@H](O)[C@H](C)/C=C/C=C(\C)[C@H]1OC(=O)C[C@H](O)CC[C@@](C)(O)[C@@H](OC(C)=O)/C=C/[C@@H]1C (stereo in doubt) [Formula 17S-FD-895, 17S-FD-895]
DNAJB1 intron 2 levels [1]: to a lesser extent | AML LSC survival compared with FD-895 ([2]; 1 μM dose, p=0.020): significantly lower | LSC survival and self-renewal, validation cohort ([2]; 1 μM, separate patient samples, versus normal controls): Reduced AML LSC survival and self-renewal compared to normal controls | AML LSC self-renewal compared with FD-895 ([2]; 0.1 and 1 μM doses, p=0.001): significantly lower | functional potency compared with FD-895 ([2]; LSC assays): greater functional potency than FD-895 | therapeutic index (AML LSC versus normal HSPC) ([2]; LSC assays, stromal co-culture): favorable therapeutic index | AML LSC self-renewal (colony replating) [2, 3]: dose-dependent reduction; also recorded: reduced AML LSC self-renewal | AML LSC survival (colony formation) [2, 3]: dose-dependent reduction; also recorded: reduced AML LSC survival
